Holding throughout (assay type): cell-based
For one test, the system named is MDA-MB-231. Nature of the test: Cell growth inhibition assay, breast cancer cell line MDA-MB-231. Conditions: Homo sapiens; MDA-MB-231 breast cancer cell line, 5,000 cells/well.
Another test addresses T1, STAT3 (Homo sapiens, UniProt P40763).
T1 construct: plasmid pSTAT3-TA-luc), which contains a stably operating STAT3 promoter; endogenous in cells
Nature of the test: STAT3 reporter gene assay (luciferase), LNCaP stable cell line (pSTAT3-TA-luc), IL-6 stimulation. An outline of the steps: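 Cytotoxicity was run on a duplicate plate with CellTiter-Glo, while the other plate gave luciferase read-outs from lysed LNCaP pSTAT3-TA-luc reporter cells. Cells were treated with graded compound concentrations plus IL-6 (10 ng/mL final) for 24–48 h in 3% DCC-FBS medium. Unstimulated and stimulated wells served as negative and positive controls.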
(In general: In a reporter assay the amount or activity of a reporter protein is the signal.)

For another test, the system named is LNCaP. Nature of the test: Cell growth inhibition assay, prostate cancer cell line LNCaP (medium with 10 ng/mL IL-6). The settings on record: Homo sapiens, medium supplemented with 10 ng/mL of IL-6, 10,000 cells/well.

Experimental findings from US10562912B2 (C&C Research Laboratories, priority 2013, dated 2020) are described below.

T1 sequence (P40763 whole entry): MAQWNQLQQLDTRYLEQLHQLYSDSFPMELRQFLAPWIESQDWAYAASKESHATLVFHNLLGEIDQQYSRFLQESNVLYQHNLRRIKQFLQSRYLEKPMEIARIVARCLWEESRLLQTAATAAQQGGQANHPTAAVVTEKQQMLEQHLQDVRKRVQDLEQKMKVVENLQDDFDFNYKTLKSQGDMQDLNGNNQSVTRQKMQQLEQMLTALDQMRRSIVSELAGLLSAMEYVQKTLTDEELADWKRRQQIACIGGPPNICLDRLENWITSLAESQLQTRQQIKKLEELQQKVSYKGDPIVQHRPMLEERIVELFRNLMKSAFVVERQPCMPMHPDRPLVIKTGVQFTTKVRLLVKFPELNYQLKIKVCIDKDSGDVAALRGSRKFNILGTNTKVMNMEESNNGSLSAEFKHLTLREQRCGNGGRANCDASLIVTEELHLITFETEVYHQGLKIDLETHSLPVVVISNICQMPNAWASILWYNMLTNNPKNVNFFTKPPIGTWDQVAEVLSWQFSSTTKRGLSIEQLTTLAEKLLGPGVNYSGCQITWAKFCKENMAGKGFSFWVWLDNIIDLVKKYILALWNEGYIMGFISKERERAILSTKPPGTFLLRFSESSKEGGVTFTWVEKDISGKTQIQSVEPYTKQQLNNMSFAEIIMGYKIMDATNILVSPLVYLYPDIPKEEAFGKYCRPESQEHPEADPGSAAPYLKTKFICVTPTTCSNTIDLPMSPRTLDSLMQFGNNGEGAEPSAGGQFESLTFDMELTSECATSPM

In the case of `CNC(=O)c1cc(NC(=O)c2cc3ccc(NS(C)(=O)=O)cc3[nH]2)cc(-c2ccc(F)cc2F)c1` [Example 318, N-(2′,4′-difluoro-5-(methylcarbamoyl)-[1,1′-biphenyl]-3-yl)-6-(methylsulfonamido)-1H-indole-2-carboxamide], the IC50 in the test with MDA-MB-231 is greater than 10 µM; against STAT3 it was 8.1 µM; in the test with LNCaP it was greater than 10 µM.

For the compound `CN(C)C(=O)c1cc(NC(=O)c2cc3ccc(NS(C)(=O)=O)cc3[nH]2)cc(-c2ccc(F)cc2F)c1` [Example 319, N-(5-(dimethylcarbamoyl)-2′,4′-difluoro-[1,1′-biphenyl]-3-yl)-6-(methylsulfonamido)-1H-indole-2-carboxamide], the IC50 with MDA-MB-231, against STAT3 and in the test with LNCaP was greater than 10 µM throughout.

With `CS(=O)(=O)Nc1ccc2cc(C(=O)Nc3cc(C(=O)N4CCCCC4)cc(-c4ccc(F)cc4F)c3)[nH]c2c1` [Example 320, N-(2′,4′-difluoro-5-(piperidine-1-carbonyl)-[1,1′-biphenyl]-3-yl)-6-(methylsulfonamido)-1H-indole-2-carboxamide], the half-maximal inhibitory concentration (IC50) with MDA-MB-231 was greater than 10 µM; on STAT3 it was 6.2 µM; with LNCaP it was greater than 10 µM.

For `CS(=O)(=O)Nc1ccc2cc(C(=O)Nc3cc(C(=O)N4CCOCC4)cc(-c4ccc(F)cc4F)c3)[nH]c2c1` [Example 321, N-(2′,4′-difluoro-5-(morpholine-4-carbonyl)-[1,1′-biphenyl]-3-yl)-6-(methylsulfonamido)-1H-indole-2-carboxamide], the IC50 was greater than 10 µM in the test on MDA-MB-231, 8.2 µM against STAT3 and greater than 10 µM in the test with LNCaP.

As to `CS(=O)(=O)Nc1ccc2cc(C(=O)Nc3cc(-c4ccc(F)nc4)cc(-c4ccc(F)cc4F)c3)[nH]c2c1` [Example 349, N-(2′,4′-difluoro-5-(6-fluoropyridin-3-yl)-[1,1′-biphenyl]-3-yl)-6-(methylsulfonamido)-1H-indole-2-carboxamide], the values for the IC50 in the test with MDA-MB-231, on STAT3 and in the test with LNCaP were 0.32 µM, 0.48 µM and 2.3 µM, respectively.

Regarding `CC(C)(C)OC(=O)n1cccc1-c1cc(NC(=O)c2cc3ccc(NS(C)(=O)=O)cc3[nH]2)cc(-c2ccc(F)cc2F)c1` [Example 350, tert-butyl 2-(2′,4′-difluoro-5-(6-(methylsulfonamido)-1H-indole-2-carboxamido)-[1,1′-biphenyl]-3-yl)-1H-pyrrole-1-carboxylate], the IC50 in the test with MDA-MB-231 came out at 2.3 µM; on STAT3, 1.5 µM; with LNCaP it was 6.5 µM.

Consider `CS(=O)(=O)Nc1ccc2cc(C(=O)Nc3cc(-c4cc[nH]n4)cc(-c4ccc(F)cc4F)c3)[nH]c2c1` [Example 351, N-(2′,4′-difluoro-5-(1H-pyrazol-3-yl)-[1,1′-biphenyl]-3-yl)-6-(methylsulfonamido)-1H-indole-2-carboxamide], for which the IC50 in the test with MDA-MB-231 was 9.9 µM; against STAT3 it was 0.3 µM; with LNCaP, greater than 10 µM.

In the case of `CS(=O)(=O)Nc1ccc2cc(C(=O)Nc3cc(-c4ccc[nH]4)cc(-c4ccc(F)cc4F)c3)[nH]c2c1` [Example 352, N-(2′,4′-difluoro-5-(1H-pyrrol-2-yl)-[1,1′-biphenyl]-3-yl)-6-(methylsulfonamido)-1H-indole-2-carboxamide], the IC50 was determined as 2.4 µM in the test on MDA-MB-231, 0.82 µM at STAT3 and 7.6 µM with LNCaP.

For the compound `Cn1cccc1-c1cc(NC(=O)c2cc3ccc(NS(C)(=O)=O)cc3[nH]2)cc(-c2ccc(F)cc2F)c1` [Example 353, N-(2′,4′-difluoro-5-(1-methyl-1H-pyrrol-2-yl)-[1,1′-biphenyl]-3-yl)-6-(methylsulfonamido)-1H-indole-2-carboxamide], the figures for the IC50 in the test with MDA-MB-231, on STAT3 and with LNCaP were 0.44 µM, 0.76 µM and 2.4 µM, respectively.

Turning to `CS(=O)(=O)Nc1ccc2cc(C(=O)Nc3cc(-c4cccs4)cc(-c4ccc(F)cc4F)c3)[nH]c2c1` [Example 354, N-(2′,4′-difluoro-5-(thiophen-2-yl)-[1,1′-biphenyl]-3-yl)-6-(methylsulfonamido)-1H-indole-2-carboxamide], the figures for the 50% inhibitory concentration (IC50) in the test with MDA-MB-231, against STAT3 and in the test on LNCaP were 0.71 µM, 0.33 µM and 5.7 µM, respectively.

Consider `CS(=O)(=O)Nc1ccc2cc(C(=O)Nc3cc(-c4ccsc4)cc(-c4ccc(F)cc4F)c3)[nH]c2c1` [Example 355, N-(2′,4′-difluoro-5-(thiophen-3-yl)-[1,1′-biphenyl]-3-yl)-6-(methylsulfonamido)-1H-indole-2-carboxamide], for which the 50% inhibitory concentration (IC50) with MDA-MB-231 came out at 0.28 µM; at STAT3 it was 0.21 µM; in the test with LNCaP it was 1.8 µM.

Take `CS(=O)(=O)Nc1ccc2cc(C(=O)Nc3cc(-c4ccncc4)cc(-c4ccc(F)cc4F)c3)[nH]c2c1` [Example 356, N-(2′,4′-difluoro-5-(pyridin-4-yl)-[1,1′-biphenyl]-3-yl)-6-(methylsulfonamido)-1H-indole-2-carboxamide]: the IC50 in the test with MDA-MB-231 was 3.3 µM; against STAT3, 3.6 µM; with LNCaP it was 9.9 µM.

On to `CS(=O)(=O)Nc1ccc2cc(C(=O)Nc3cc(-c4cccnc4)cc(-c4ccc(F)cc4F)c3)[nH]c2c1` [Example 357, N-(2′,4′-difluoro-5-(pyridin-3-yl)-[1,1′-biphenyl]-3-yl)-6-(methylsulfonamido)-1H-indole-2-carboxamide], for which the IC50 with MDA-MB-231 is 1.2 µM; against STAT3, 1.7 µM; in the test on LNCaP, 6.6 µM.

As for `CS(=O)(=O)Nc1ccc2cc(C(=O)Nc3cc(-c4ccc(C(F)(F)F)nc4)cc(-c4ccc(F)cc4F)c3)[nH]c2c1` [Example 358, N-(2′,4′-difluoro-5-(6-(trifluoromethyl)pyridin-3-yl)-[1,1′-biphenyl]-3-yl)-6-(methylsulfonamido)-1H-indole-2-carboxamide], the IC50 in the test on MDA-MB-231 turned out to be 1.2 µM; on STAT3 it was 1.7 µM; in the test on LNCaP, 8 µM.

In the case of `CS(=O)(=O)Nc1ccc2cc(C(=O)Nc3cc(-c4ccc(C#N)nc4)cc(-c4ccc(F)cc4F)c3)[nH]c2c1` [Example 359, N-(5-(6-cyanopyridin-3-yl)-2′,4′-difluoro-[1,1′-biphenyl]-3-yl)-6-(methylsulfonamido)-1H-indole-2-carboxamide], the IC50 is 2.6 µM in the test on MDA-MB-231, greater than 10 µM against STAT3 and greater than 10 µM in the test on LNCaP.

In the case of `CS(=O)(=O)Nc1ccc2cc(C(=O)Nc3cc(-c4cncnc4)cc(-c4ccc(F)cc4F)c3)[nH]c2c1` [Example 360, N-(2′,4′-difluoro-5-(pyrimidin-5-yl)-[1,1′-biphenyl]-3-yl)-6-(methylsulfonamido)-1H-indole-2-carboxamide], the IC50 in the test on MDA-MB-231 was 1.8 µM; on STAT3 it was greater than 10 µM; with LNCaP, greater than 10 µM.

Regarding `CS(=O)(=O)Nc1ccc2cc(C(=O)Nc3cc(-c4cnc(N)nc4)cc(-c4ccc(F)cc4F)c3)[nH]c2c1` [Example 361, N-(5-(2-aminopyrimidin-5-yl)-2′,4′-difluoro-[1,1′-biphenyl]-3-yl)-6-(methylsulfonamido)-1H-indole-2-carboxamide], the IC50 in the test with MDA-MB-231, against STAT3 and in the test on LNCaP was greater than 10 µM each time.

For the compound `CS(=O)(=O)Nc1ccc2cc(C(=O)Nc3cc(-c4ccc(F)cc4F)cc(-c4ccc(F)cc4F)c3)[nH]c2c1` [Example 362, 6-(methylsulfonamido)-N-(2,2″,4,4″-tetrafluoro-[1,1′:3′,1″-terphenyl]-5′-yl)-1H-indole-2-carboxamide], the IC50 amounted to 0.69 µM in the test on MDA-MB-231, 0.72 µM against STAT3 and 2.6 µM in the test with LNCaP.

Regarding `CS(=O)(=O)Nc1ccc2cc(C(=O)Nc3cc(CC#N)cc(-c4ccc(F)cc4F)c3)[nH]c2c1` [Example 363, N-(5-(cyanomethyl)-2′,4′-difluoro-[1,1′-biphenyl]-3-yl)-6-(methylsulfonamido)-1H-indole-2-carboxamide], the IC50 in the test with MDA-MB-231 turned out to be 0.88 µM; at STAT3, 1.3 µM; with LNCaP it was 2.4 µM.

Turning to `CS(=O)(=O)Nc1ccc2cc(C(=O)Nc3cc(-c4ccc(O)nc4)cc(-c4ccc(F)cc4F)c3)[nH]c2c1` [Example 364, N-(2′,4′-difluoro-5-(6-hydroxypyridin-3-yl)-[1,1′-biphenyl]-3-yl)-6-(methylsulfonamido)-1H-indole-2-carboxamide], the IC50 in the test with MDA-MB-231, against STAT3 and in the test with LNCaP was greater than 10 µM throughout.

Consider `C#Cc1cc(NC(=O)c2cc3ccc(NS(C)(=O)=O)cc3[nH]2)cc(-c2ccc(F)cc2F)c1` [Example 365, N-(5-ethynyl-2′,4′-difluoro-[1,1′-biphenyl]-3-yl)-6-(methylsulfonamido)-1H-indole-2-carboxamide], for which the results for the IC50 with MDA-MB-231, against STAT3 and in the test with LNCaP were 0.32 µM, 0.4 µM and 2.8 µM, respectively.

As for `CS(=O)(=O)Nc1ccc2cc(C(=O)Nc3cc(OC(F)F)cc(-c4ccc(F)cc4F)c3)[nH]c2c1` [Example 369, N-(5-(difluoromethoxy)-2′,4′-difluoro-[1,1′-biphenyl]-3-yl)-6-(methylsulfonamido)-1H-indole-2-carboxamide], the IC50 stood at 0.28 µM in the test on MDA-MB-231, 0.7 µM on STAT3 and 3.8 µM with LNCaP.

For the compound `CS(=O)(=O)Nc1ccc2sc(C(=O)Nc3cc(OC(F)F)cc(-c4ccc(F)cc4F)c3)cc2c1` [Example 370, N-(5-(difluoromethoxy)-2′,4′-difluoro-[1,1′-biphenyl]-3-yl)-5-(methylsulfonamido)benzo[b]thiophene-2-carboxamide], the IC50 was determined as 0.032 µM in the test with MDA-MB-231, 0.21 µM against STAT3 and 0.6 µM in the test with LNCaP.

For `CS(=O)(=O)Nc1ccc2cc(C(=O)Nc3cc(-c4ccc(F)cc4F)cc(N4CCCCC4)c3)[nH]c2c1` [Example 371, N-(2′,4′-difluoro-5-(piperidin-1-yl)-[1,1′-biphenyl]-3-yl)-6-(methylsulfonamido)-1H-indole-2-carboxamide], the IC50 with MDA-MB-231 turned out to be 1.4 µM; against STAT3 it was 0.9 µM; in the test on LNCaP it was 7.8 µM.

By IC50 is commonly meant the concentration needed to halve the response being measured. The low end stands for greater potency in that assay, the high end for weaker potency in that assay.
